{"source": "patent US20220073536A1", "about": "(Rigel Pharmaceuticals, Inc., priority 2003, published 2022)", "key": {"[1]": {"tested_on": "cultured human mast cells (CHMC)", "assay": "CHMC low cell density IgE activation: tryptase assay", "format": "cell-based", "details": "IgE activation", "method_in_brief": "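Fluorogenic readout of tryptase released into the supernatant (30 min substrate incubation, room temperature) measures degranulation. Cells were plated at low density (1000–1500/well, varied by donor) and triggered with anti-IgE for 30 min at 37 °C.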"}, "[2]": {"tested_on": "cultured human mast cells (CHMC)", "assay": "CHMC low cell density ionomycin activation: tryptase assay", "format": "cell-based", "details": "3 pt, read-out: LD Tryptase, CHMC, Iono, 3 pt"}, "[3]": {"details": "Homo sapiens, Mast cell, low cell density, 3 pt, read-out: LD Tryptase, CHMC, IgE, 3 pt"}, "[4]": {"details": "Homo sapiens, Mast cell, low cell density, 8 pt, read-out: LD Tryptase, CHMC, IgE, 8 pt"}, "[5]": {"details": "Homo sapiens, Mast cell, low cell density"}, "[6]": {"details": "low cell density, 3 pt, read-out: LD Tryptase, CHMC, IgE, 3 pt"}, "[7]": {"details": "low cell density CHMC, tryptase readout, 3 pt, read-out: LD Tryptase, CHMC, IgE, 3 pt"}, "[8]": {"details": "low cell density CHMC, tryptase readout, 8 pt, read-out: LD Tryptase, CHMC, IgE, 8 pt"}, "[9]": {"details": "low cell density CHMC, tryptase readout"}}, "data": [{"smiles": "Cc1cc(Nc2ncc(F)c(Nc3ccc4c(c3)OCCO4)n2)cc(Cl)c1O", "note": "[Compound 995, N2-(3-Chloro-4-hydroxy-5-methylphenyl)-N4-(3,4-ethylenedioxyphenyl)-5-fluoro-2,4-pyrimidinediamine]", "values": [{"measurement": "IC50", "setting": "[1]; [3]", "value": "< 10", "unit": "µM"}, {"measurement": "IC50", "setting": "[1]; [4]", "value": "< 10", "unit": "µM"}, {"measurement": "IC50", "setting": "[2]; [5]", "value": "< 10", "unit": "µM"}]}, {"smiles": "Cc1cc(Nc2ncc(F)c(Nc3ccc4c(n3)NC(=O)C(C)(C)O4)n2)cc(Cl)c1O", "note": "[Compound 996, N2-(3-Chloro-4-hydroxy-5-methylphenyl)-N4-(2,2-dimethyl-3-oxo-4H-5-pyrid[1,4]oxazin-6-yl)-5-fluoro-2,4-pyrimidinediamine]", "values": [{"measurement": "IC50", "setting": "[1]; [6]", "value": "< 10", "unit": "µM"}, {"measurement": "IC50", "setting": "[1]; low cell density, 8 pt, read-out: LD Tryptase, CHMC, IgE, 8 pt", "value": "< 10", "unit": "µM"}, {"measurement": "IC50", "setting": "[2]; low cell density", "value": "> 10", "unit": "µM"}]}, {"smiles": "COc1c(C)cc(Nc2ncc(F)c(Nc3ccc4c(n3)NC(=O)C(C)(C)O4)n2)cc1C", "note": "[Compound 997, N2-(3,5-Dimethyl-4-methoxyphenyl)-N4-(2,2-dimethyl-3-oxo-4H-5-pyrid[1,4]oxazin-6-yl)-5-fluoro-2,4-pyrimidinediamine]", "values": [{"measurement": "IC50", "setting": "[1]; [3]", "value": "< 10", "unit": "µM"}, {"measurement": "IC50", "setting": "[1]; [4]", "value": "< 10", "unit": "µM"}, {"measurement": "IC50", "setting": "[2]; [5]", "value": "> 10", "unit": "µM"}]}, {"smiles": "COc1c(C)cc(Nc2ncc(F)c(Nc3ccc4c(c3)OCCO4)n2)cc1C", "note": "[Compound 998]", "values": [{"measurement": "IC50", "setting": "[1]; [3]", "value": "< 10", "unit": "µM"}, {"measurement": "IC50", "setting": "[1]; [4]", "value": "< 10", "unit": "µM"}, {"measurement": "IC50", "setting": "[2]; [5]", "value": "> 10", "unit": "µM"}]}, {"smiles": "COc1c(C)cc(Nc2ncc(F)c(Nc3ccc4c(c3)OCCO4)n2)cc1Cl", "note": "[Compound 999]", "values": [{"measurement": "IC50", "setting": "[1]; [3]", "value": "< 10", "unit": "µM"}, {"measurement": "IC50", "setting": "[1]; [4]", "value": "< 10", "unit": "µM"}, {"measurement": "IC50", "setting": "[2]; [5]", "value": "< 10", "unit": "µM"}]}, {"smiles": "Cc1ccccc1Nc1ncc(F)c(Nc2ccc3c(n2)NC(=O)C(C)(C)O3)n1", "note": "[Compound 1004, N4-(2,2-Dimethyl-3-oxo-4H-5-pyrid[1,4]oxazin-6-yl)-5-fluoro-N2-(2-methylphenyl)-2,4-pyrimidinediamine]", "values": [{"measurement": "IC50", "setting": "[1]; [6]", "value": "< 10", "unit": "µM"}, {"measurement": "IC50", "setting": "[2]; low cell density", "value": "> 10", "unit": "µM"}]}, {"smiles": "CN1C(=O)C(C)(C)Oc2ccc(N(C)c3nc(Cl)ncc3F)nc21", "note": "[Compound 1005, 2-Chloro-5-fluoro-N4-methyl-N4-(3-oxo-2,2,4-trimethyl-5-pyrid[1,4]oxazin-6-yl)-4-pyrimidineamine]", "values": [{"measurement": "IC50", "setting": "[1]; [6]", "value": "< 10", "unit": "µM"}, {"measurement": "IC50", "setting": "[2]; low cell density", "value": "> 10", "unit": "µM"}]}, {"smiles": "CN1C(=O)C(C)(C)Oc2ccc(Nc3nc(Cl)ncc3F)nc21", "note": "[Compound 1006, 2-Chloro-5-fluoro-N4-(3-oxo-2,2,4-trimethyl-5-pyrid[1,4]oxazin-6-yl)-4-pyrimidineamine]", "values": [{"measurement": "IC50", "setting": "[1]; [6]", "value": "> 10", "unit": "µM"}, {"measurement": "IC50", "setting": "[2]; low cell density", "value": "> 10", "unit": "µM"}]}, {"smiles": "CCOc1c(C)cc(Nc2ncc(F)c(Nc3ccc4c(c3)NC(=O)C(C)(C)O4)n2)cc1Cl", "note": "[Compound 1008, N2-(3-Chloro-4-ethoxy-5-methylphenyl)-N4-(2,2-dimethyl-3-oxo-4H-benz[1,4]oxazin-6-yl)-5-fluoro-2,4-pyrimidinediamine]", "values": [{"measurement": "IC50", "setting": "[1]; [3]", "value": "< 10", "unit": "µM"}, {"measurement": "IC50", "setting": "[1]; [4]", "value": "< 10", "unit": "µM"}, {"measurement": "IC50", "setting": "[2]; [5]", "value": "< 10", "unit": "µM"}]}, {"smiles": "COc1c(C)cc(Nc2ncc(F)c(Nc3ccc4c(n3)N(C)C(=O)C(C)(C)O4)n2)cc1Cl", "note": "[Compound 1009, N2-(3-Chloro-4-methoxy-5-methylphenyl)-5-fluoro-N4-(3-oxo-2,2,4-trimethyl-5-pyrid[1,4]oxazin-6-yl)-2,4-pyrimidinediamine]", "values": [{"measurement": "IC50", "setting": "[1]; [7]", "value": "< 10", "unit": "µM"}, {"measurement": "IC50", "setting": "[1]; [8]", "value": "< 10", "unit": "µM"}, {"measurement": "IC50", "setting": "[2]; [9]", "value": "> 10", "unit": "µM"}]}, {"smiles": "CCOc1c(C)cc(Nc2ncc(F)c(Nc3ccc4c(n3)NC(=O)C(C)(C)O4)n2)cc1Cl", "note": "[Compound 1010, N2-(3-Chloro-4-ethoxy-5-methylphenyl)-N4-(2,2-dimethyl-3-oxo-4H-5-pyrid[1,4]oxazin-6-yl)-5-fluoro-2,4-pyrimidinediamine]", "values": [{"measurement": "IC50", "setting": "[1]; [7]", "value": "< 10", "unit": "µM"}, {"measurement": "IC50", "setting": "[2]; [9]", "value": "> 10", "unit": "µM"}]}, {"smiles": "CC1(C)Oc2ccc(Nc3nc(Nc4ccc(-c5ncco5)cc4)ncc3F)cc2NC1=O", "note": "[Compound 1011, N4-(2,2-Dimethyl-3-oxo-4H-benz[1,4]oxazin-6-yl)-5-fluoro-N2-[4-(oxazol-2-yl)phenyl]-2,4-pyrimidinediamine]", "values": [{"measurement": "IC50", "setting": "[1]; Homo sapiens, Mast cell, low cell density CHMC, tryptase readout, 3 pt, read-out: LD Tryptase, CHMC, IgE, 3 pt", "value": "< 10", "unit": "µM"}, {"measurement": "IC50", "setting": "[1]; Homo sapiens, Mast cell, low cell density CHMC, tryptase readout, 8 pt, read-out: LD Tryptase, CHMC, IgE, 8 pt", "value": "< 10", "unit": "µM"}, {"measurement": "IC50", "setting": "[2]; Homo sapiens, Mast cell, low cell density CHMC, tryptase readout", "value": "> 10", "unit": "µM"}]}, {"smiles": "CN1C(=O)C(C)(C)Oc2ccc(Nc3nc(Nc4cccc(-c5ncco5)c4)ncc3F)nc21", "note": "[Compound 1012, 5-Fluoro-N2-[3-(oxazol-2-yl)phenyl]-N4-[3-oxo-2,2,4-trimethyl-5-pyrid[1,4]oxazin-6-yl]-2,4-pyrimidinediamine]", "values": [{"measurement": "IC50", "setting": "[1]; [7]", "value": "< 10", "unit": "µM"}, {"measurement": "IC50", "setting": "[1]; [8]", "value": "< 10", "unit": "µM"}, {"measurement": "IC50", "setting": "[2]; [9]", "value": "> 10", "unit": "µM"}]}]}
